Patent US20200181117A1, “SUBSTITUTED 3-HETEROARYLOXY-1H-PYRAZOLES AND SALTS THEREOF AND THEIR USE AS HERBICIDAL ACTIVE SUBSTANCES” (BAYER CROPSCIENCE AKTIENGESELLSCHAFT, priority 2017, published 2020)

How the values were obtained:
Type in all cases: in vivo
[1] = tested on: Stellaria media; assay: Post-emergence herbicidal action; settings: 1280 g/ha, rated visually after about 3 weeks vs untreated controls
Protocol: (§1) A. Post-Emergence Herbicidal Action and Crop Plant Compatibility Seeds of monocotyledonous and dicotyledonous weeds and crop plants were placed in sandy loam in plastic or wood-fiber pots, covered with soil and cultivated in a greenhouse under controlled growth conditions. 2 to 3 weeks after sowing, the test plants were treated at the one-leaf stage. The compounds of the invention, formulated in the form of wettable powders (WP) or as emulsion concentrates (EC), were then sprayed onto the green parts of the plants as aqueous suspension or emulsion with addition of 0.5% additive at a water application rate of 600 l/ha (converted). After the test plants had been kept in the greenhouse under optimum growth conditions for about 3 weeks, the activity of the preparations was rated visually in comparison to untreated controls. For example, 100% activity=the plants have died, 0% activity=like control plants. Tables B1 to B15 below show the effects of selected compounds of the general formula (I) according to Table I on various harmful plants and an application rate corresponding to 1280 g/ha, which were obtained by the experimental procedure mentioned above.

[2] = tested on: Veronica persica; assay: Post-emergence herbicidal action; settings: 1280 g/ha, rated visually after about 3 weeks vs untreated controls
Protocol: as §1

[3] = tested on: Amaranthus retroflexus; assay: Post-emergence herbicidal action; settings: 1280 g/ha, rated visually after about 3 weeks vs untreated controls
Protocol: as §1

[4] = tested on: Polygonum convolvulus; assay: Post-emergence herbicidal action; settings: 1280 g/ha, rated visually after about 3 weeks vs untreated controls
Protocol: as §1

[5] = tested on: Matricaria inodora; assay: Pre-emergence herbicidal action; settings: 1280 g/ha, scored visually after about 3 weeks vs untreated controls
From the text: (§2) Pre-Emergence Herbicidal Action and Crop Plant Compatibility Seeds of monocotyledonous and dicotyledonous weed plants and crop plants were placed in plastic or wood fiber pots and covered with soil. The compounds of the invention, formulated in the form of wettable powders (WP) or as emulsion concentrates (EC), were then applied onto the surface of the covering soil as aqueous suspension or emulsion with addition of 0.5% additive at a water application rate of 600 l/ha (converted). After the treatment, the pots were placed in a greenhouse and kept under good growth conditions for the test plants. After about 3 weeks, the effect of the preparations was scored visually in comparison with untreated controls as percentages. For example, 100% activity=the plants have died, 0% activity=like control plants. Tables C1 to C14 below show the effects of selected compounds of the general formula (I) according to Table I on various harmful plants and an application rate corresponding to 1280 g/ha, which were obtained by the experimental procedure mentioned above.

[6] = tested on: Veronica persica; assay: Pre-emergence herbicidal action; settings: 1280 g/ha, scored visually after about 3 weeks vs untreated controls
From the text: as §2

[7] = tested on: Amaranthus retroflexus; assay: Pre-emergence herbicidal action; settings: 1280 g/ha, scored visually after about 3 weeks vs untreated controls
From the text: as §2

[8] = tested on: Stellaria media; assay: Pre-emergence herbicidal action; settings: 1280 g/ha, scored visually after about 3 weeks vs untreated controls
From the text: as §2

[9] = tested on: Viola tricolor; assay: Pre-emergence herbicidal action; settings: 1280 g/ha, scored visually after about 3 weeks vs untreated controls
From the text: as §2

[10] = tested on: Viola tricolor; assay: Post-emergence herbicidal action; settings: 1280 g/ha, rated visually after about 3 weeks vs untreated controls
Protocol: as §1

[11] = tested on: Alopecurus myosuroides; assay: Pre-emergence herbicidal action; settings: 1280 g/ha, scored visually after about 3 weeks vs untreated controls
From the text: as §2

[12] = tested on: Echinochloa crus-galli; assay: Pre-emergence herbicidal action; settings: 1280 g/ha, scored visually after about 3 weeks vs untreated controls
From the text: as §2

[13] = tested on: Setaria viridis; assay: Pre-emergence herbicidal action; settings: 1280 g/ha, scored visually after about 3 weeks vs untreated controls
From the text: as §2

[14] = tested on: Abutilon theophrasti; assay: Pre-emergence herbicidal action; settings: 1280 g/ha, scored visually after about 3 weeks vs untreated controls
From the text: as §2

[15] = tested on: Polygonum convolvulus; assay: Pre-emergence herbicidal action; settings: 1280 g/ha, scored visually after about 3 weeks vs untreated controls
From the text: as §2

[16] = tested on: Pharbitis purpurea; assay: Post-emergence herbicidal action; settings: 1280 g/ha, rated visually after about 3 weeks vs untreated controls
Protocol: as §1

[17] = tested on: Alopecurus myosuroides; assay: Post-emergence herbicidal action; settings: 1280 g/ha, rated visually after about 3 weeks vs untreated controls
Protocol: as §1

[18] = tested on: Setaria viridis; assay: Post-emergence herbicidal action; settings: 1280 g/ha, rated visually after about 3 weeks vs untreated controls
Protocol: as §1

[19] = tested on: Abutilon theophrasti; assay: Post-emergence herbicidal action; settings: 1280 g/ha, rated visually after about 3 weeks vs untreated controls
Protocol: as §1

[20] = tested on: Avena fatua; assay: Pre-emergence herbicidal action; settings: 1280 g/ha, scored visually after about 3 weeks vs untreated controls
From the text: as §2

[21] = tested on: Echinochloa crus-galli; assay: Post-emergence herbicidal action; settings: 1280 g/ha, rated visually after about 3 weeks vs untreated controls
Protocol: as §1

[22] = tested on: Hordeum murinum; assay: Pre-emergence herbicidal action; settings: 1280 g/ha, scored visually after about 3 weeks vs untreated controls
From the text: as §2

[23] = tested on: Lolium rigidum; assay: Pre-emergence herbicidal action; settings: 1280 g/ha, scored visually after about 3 weeks vs untreated controls
From the text: as §2

Row | Structure (SMILES) | herbicidal activity on Stellaria media [1] | herbicidal activity on Veronica persica [2] | herbicidal activity on Amaranthus retroflexus [3] | herbicidal activity on Polygonum convolvulus [4] | herbicidal activity on Matricaria inodora [5] | herbicidal activity on Veronica persica [6] | herbicidal activity on Amaranthus retroflexus [7] | herbicidal activity on Stellaria media [8] | herbicidal activity on Viola tricolor [9] | herbicidal activity on Viola tricolor [10] | herbicidal activity on Alopecurus myosuroides [11] | herbicidal activity on Echinochloa crus-galli [12] | herbicidal activity on Setaria viridis [13] | herbicidal activity on Abutilon theophrasti [14] | herbicidal activity on Polygonum convolvulus [15] | herbicidal activity on Pharbitis purpurea [16] | herbicidal activity on Alopecurus myosuroides [17] | herbicidal activity on Setaria viridis [18] | herbicidal activity on Abutilon theophrasti [19] | herbicidal activity on Avena fatua [20] | also measured
1 | Cn1cc(Sc2ccc(F)cc2)c(Oc2ncccn2)n1 [Example I-032] | 100% | 90% | 90% | 90% | 90% | 90% | 80% | – | – | – | – | – | – | – | – | – | – | – | – | – | –
2 | CCc1c(Sc2ccc(Cl)cc2)c(Oc2ncccn2)nn1C [Example I-058] | 100% | 90% | 80% | – | – | – | 100% | 90% | 80% | – | – | – | – | – | – | – | – | – | – | – | –
3 | Cn1cc(Sc2ccccc2)c(Oc2ncccn2)n1 [Example I-067] | 90% | 100% | – | 90% | 100% | 100% | 100% | 90% | 100% | 80% | 90% | 90% | 100% | 90% | 90% | – | – | – | – | – | –
4 | Cc1c(Sc2ccc(F)cc2)c(Oc2ncccn2)nn1C [Example I-087] | 100% | 100% | 100% | 100% | 90% | 100% | 100% | – | 100% | 100% | – | 80% | 100% | 100% | 90% | 80% | 90% | 90% | 80% | 80% | –
5 | Cn1cc(Sc2ccccc2)c(Oc2ncc(Cl)cn2)n1 [Example I-120] | 90% | 80% | 80% | 100% | – | 100% | 80% | 100% | 100% | 100% | 90% | 100% | – | 100% | 80% | – | 90% | 80% | – | – | –
6 | Fc1ccc(Sc2c(Oc3ncc(F)cn3)nn3c2CCOCC3)cc1 [Example I-122] | 90% | 90% | – | 100% | 100% | 100% | 100% | 100% | 100% | 90% | 100% | 100% | 100% | 100% | 100% | 90% | 90% | 100% | 100% | 80% | herbicidal activity on Echinochloa crus-galli [21]: 90%; herbicidal activity on Hordeum murinum [22]: 90%
7 | CCc1c(Sc2ccc(F)cc2F)c(Oc2ncccn2)nn1C [Example I-136] | 90% | 100% | 100% | – | 100% | – | 100% | 100% | 100% | 100% | 100% | 90% | 100% | 100% | 100% | – | – | – | 90% | 90% | herbicidal activity on Lolium rigidum [23]: 100%
8 | Cc1c(Sc2cccc(C(F)(F)F)c2)c(Oc2ncccn2)nn1C [Example I-142] | – | 80% | 90% | – | – | 90% | 90% | 90% | 100% | – | 80% | – | 100% | – | 100% | – | – | – | 80% | – | –
9 | CCc1c(Sc2ccccc2)c(Oc2ncc(F)cn2)nn1C [Example I-155] | 90% | 100% | 100% | – | 100% | – | 100% | 100% | 100% | 100% | 100% | 90% | 100% | 100% | – | 80% | 90% | 80% | 80% | 100% | herbicidal activity on Hordeum murinum [22]: 100%; herbicidal activity on Lolium rigidum [23]: 80%
10 | Fc1ccc(Sc2c(Oc3ncccn3)nn3c2CCOCC3)c(F)c1 [Example I-163] | 80% | 80% | – | 100% | 100% | 90% | 90% | 90% | 100% | 90% | 90% | 100% | 100% | 100% | 100% | 90% | 90% | 90% | 90% | – | herbicidal activity on Echinochloa crus-galli [21]: 90%; herbicidal activity on Hordeum murinum [22]: 90%
